Results: paper PMC6461108, “A catalytic protein–proteomimetic complex: using aromatic oligoamide foldamers as activators of RNase S” (Chemical Science, 2019)
Values joined by “and” are separate entries in the source; they are usually repeats but may differ in a detail not shown here. Equal values may be shown once.

Key:
[1] = molecular target: p53/hDM2 interaction (Homo sapiens, UniProt Q00987); assay: Fluorescence anisotropy competition assay against p53/hDM2; type: binding; conditions: FITC-p53 15-31 tracer; for IC50: 50 mM phosphate pH 7.5, 200 mM NaCl, 0.02 mg/mL BSA
Description: The calculation was run to generate 10 000 conformer sets, of which the lowest energy […]
in total) were retained for docking experiments. The lowest energy conformers belong to the same family of conformers and are well superimposed with the first lowest energy […]
protein (from 4YGW) and S-protein in complex with dApTpApApG (1RCN) using Glide XP method.11-13 All of the input ligands gave a pose in the S-protein binding groove. The […]
12, were refined using the induced fit docking against S-protein in complex with the oligonucleotide. Side chains of S-protein binding groove were automatically trimmed (based on B-factor) during docking calculation and restored for the final refinement.
The library of hybrid mimetics were docked as flexible ligands against the S-protein in complex with the oligonucleotide fragment using Glide XP (extra precision) method.11-13 […]
ligands against S-protein in complex with the oligonucleotide fragment using Glide XP method11-13 and refined using induced fit docking (Fig S7).
The fluorescein-labelled p5315-31–Flu 3,4 was purchased from peptide protein research Ltd.
Fluorescence anisotropy assays were performed in 384-well black plates (Greiner Bio-one). Each experiment was run in triplicate and fluorescence anisotropy was measured using a Perkin Elmer EnVisionTM 2103 MultiLabel plate reader. […]
For control wells in both assays, the tracer peptide was replaced with an identical volume of assay buffer. […] Plates were read after 1 h of incubation at room temperature. […]
The average anisotropy (across three experimental replicates) and the standard deviation of these values were then calculated and fit to a sigmoidal logistic model (Equation 3) using OriginPro 9.0 which provided the IC50 and error values. […]
UV absorbance analyses were recorded in a 1 mm path-length quartz cuvette on a Perkin Elmer Lambda 900 UV/VIS/NIR spectrometer.
High-resolution mass spectrometry (HRMS) data was recorded using electrospray ionization in positive mode (ESI+) with a Bruker MaXis Impact spectrometer. […]

[2] = molecular target: T1, S-protein (Bos taurus, UniProt P61823); assay: Isothermal titration calorimetry with S-protein; type: binding, bovine
T1 construct: S-protein22-124; host or cells: none: purchased RNase A digested with subtilisin, S-protein purified by RP-HPLC
T1 sequence (P61823 48-150): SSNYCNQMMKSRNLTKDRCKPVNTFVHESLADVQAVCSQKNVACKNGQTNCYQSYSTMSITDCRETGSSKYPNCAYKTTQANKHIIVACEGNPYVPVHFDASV

[3] = molecular target: T1, S-protein; assay: Native ESI-MS of S-protein complexes; type: binding, bovine
[4] = molecular target: T2, RNase S-protein (Bos taurus, UniProt P61823); assay: Regulation of S-protein activity by hDM2 (RNA degradation assay); conditions: hDM2 10 μM; 1a 100 μM or S-peptide 0.4 μM with S-protein
T2 sequence (P61823 47-150 limits assumed): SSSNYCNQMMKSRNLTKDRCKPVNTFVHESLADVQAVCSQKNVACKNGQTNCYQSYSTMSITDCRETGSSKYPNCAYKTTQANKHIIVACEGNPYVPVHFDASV

[5] = molecular target: T3, RNase S-protein (Bos taurus, UniProt P61823); assay: Kinetics of RNA hydrolysis by S-protein with S-peptide or mimetic; conditions: S-protein 0.05 µM, S-peptide 0.4 µM or 1a 100 µM
T3 sequence (P61823 48-150): T1 sequence (P61823 48-150)

[6] = molecular target: T3, RNase S-protein; assay: RNA degradation assay (EtBr fluorescence), reactivation of S-protein; type: biochemical, bovine; design: S-protein22-124; host or cells: none: purchased RNase A digested with subtilisin, S-protein purified by RP-HPLC; conditions: for % remaining fluorescence (100 µM): 100 µM compound, 0.05 µM S-protein, 45 min, 25 °C, Tris pH 6.5
[7] = S-protein titrated into mimetic, 37 °C

What does the source list for CC(C)Oc1cc(NC(=O)[C@H](Cc2ccccc2)NC(=O)c2ccc(N)c(OCc3ccc(Cl)cc3)c2)ccc1C(=O)NCC(=O)O [Compound 1a]?
IC50 [1]: 10.9 µM and ~10 µM; Kd [2]: 1.85 ± 0.97 µM; H (kcal/mol), ITC [2, 7]: -19.04 ± 1.90 kcal/mol; S (cal/molK), ITC [2, 7]: -35.2 cal/molK; n (ITC stoichiometry) [2, 7]: 0.089 and 0.1; S-protein/mimetic complexes detected by native ESI-MS ([3]; 5-fold excess of mimetic (10 μM) relative to S-protein (2 μM)): 1 : 1 complex and a lower intensity 1 : 2 S-protein/mimetic 1a complex could be detected; ternary complex in native MS competition with increasing S-peptide ([3]; S-protein and 1a constant, increasing S-peptide): no ternary complex could be detected; effect of added hDM2 on RNA hydrolysis [4]: suppressed; V0, average initial rate of RNA degradation ([5]; CRNA 50): 0.016 ± 0.001 g/mL/s; V0, average initial rate of RNA degradation ([5]; CRNA 75): 0.04 ± 0.004 g/mL/s; V0, average initial rate of RNA degradation ([5]; CRNA 125): 0.088 ± 0.009 g/mL/s; V0, average initial rate of RNA degradation ([5]; CRNA 200): 0.126 ± 0.011 g/mL/s; V0, average initial rate of RNA degradation ([5]; CRNA 300): 0.168 ± 0.016 g/mL/s; V0, average initial rate of RNA degradation ([5]; CRNA 425): 0.211 ± 0.032 g/mL/s; V0, average initial rate of RNA degradation ([5]; CRNA 575): 0.254 ± 0.053 g/mL/s; % remaining fluorescence (100 µM) [6]: 40%; activity in RNA degradation assay at a single concentration (SAR set 1a-1d) ([6]; single concentration, 20 µL of 1 mM stock in 200 µL): active

What does the source list for CC(C)Oc1cc(NC(=O)[C@H](Cc2ccccc2)NC(=O)c2ccc(N)c(OCc3ccc4ccccc4c3)c2)ccc1C(=O)NCC(=O)O [Compound 4]?
IC50 [1]: 8.1 ± 0.3 µM; % remaining fluorescence (100 µM) [6]: 44%

What does the source list for “Ac-KETAAAKFERQHMDS-NH2 [S-peptide, reference compound]”?
competition with fluorescently labelled p53 peptide for hDM2 [1]: did not compete; Kd [2]: 0.13 ± 0.02 µM; effect of added hDM2 on RNA hydrolysis [4]: no effect on catalysis; V0, average initial rate of RNA degradation ([5]; CRNA 50): 0.057 ± 0.002 g/mL/s; V0, average initial rate of RNA degradation ([5]; CRNA 75): 0.097 ± 0.004 g/mL/s; V0, average initial rate of RNA degradation ([5]; CRNA 125): 0.159 ± 0.008 g/mL/s; V0, average initial rate of RNA degradation ([5]; CRNA 200): 0.226 ± 0.011 g/mL/s; V0, average initial rate of RNA degradation ([5]; CRNA 300): 0.296 ± 0.029 g/mL/s; V0, average initial rate of RNA degradation ([5]; CRNA 425): 0.362 ± 0.037 g/mL/s; V0, average initial rate of RNA degradation ([5]; CRNA 575): 0.431 ± 0.050 g/mL/s
